Assay results published in patent publication US11384078B2, “5,6-fused-bicyclic compounds and compositions for the treatment of parasitic diseases” (NOVARTIS AG, priority 2017, dated 2022).
Read-outs that look alike come from different tables or passages of the source.

Assays:
[1] = tested on: Leishmania donovani axenic amastigote; test: In vitro assay for growth inhibition of Leishmania donovani axenic amastigote (Cell TiterGlo luminescence); assay type: cell-based; conditions: read-out: L. donovani amastigotes EC50
Protocol: Abbreviations as used herein below have the corresponding meaning: • CPRG Chlorophenol Red-P-D-galactopyranoside • ATP adenosine triphosphate • BSA bovine serum albumin • DMSO dimethyl sulfoxide • FBS fetal bovine serum • PBS phosphate buffered saline • RPMI 1640 Rosweli Park Memorial Institute (RPMI) 1640 medium In Vitro Assay for Growth Inhibition of Leishmania donovani Axenic Amastiqote
Leishmania donovani axenic amastigote parasites are grown at 37° C., 5% CO2 in media made of RPMI 1640, 4 mM L-glutamine, 20% heat inactivated FBS, 100 units/ml of penicillin and 100 μg/ml of streptomycin, 23 μM folic acid, 100 μM adenosine, 22 mM D-glucose, 25 mM MES. The pH of media is adjusted to 5.5 at 37° C. using HCl. 20 μL of media is first dispensed into 384 well plates and 100 nL of the compounds of invention in DMSO are added to the plate wells. At the same time control compounds and DMSO are added to plates to serve as the positive and negative controls, respectively. 40 μL of parasite culture (9600 parasites) are then added to the plate wells. The plates are then placed into incubators. After two days incubation, 20 μL of Cell TiterGlo® (Promega) is added to the plate wells. The luminescence signal of each well is measured using the Envision reader (Perkin Elmer).

[2] = tested on: Trypanosoma cruzi amastigotes cultured in 3T3 fibroblast cells; test: Assay for growth inhibition of kinetoplastid parasite Trypanosoma cruzi (beta-galactosidase Tulahuen strain, CPRG readout); assay type: cell-based; conditions: read-out: Buckner infectious T. cruzi EC50
Text: Assay for Growth Inhibition of Kinetoplastid Parasite Trypanosoma cruzi
Compounds of the invention can be assayed for inhibitor activity against Trypanosoma cruzi amastigotes cultured in 3T3 fibroblast cells. The assay is done using the mammalian stage (amastigotes) of T. cruzi that replicates in the intracellular space of host cells. The host cells are initially infected with the culture-derived trypomastigotes that rapidly invade and then divide as amastigotes. The protocol uses the Tulahuen strain of T. cruzi that has been engineered to express the E. coli beta-galactosidase gene (Lac-Z) (Antimicr. Agents Chemoth. 40:2592, 1996). This allows for a colorimetric readout by using the substrate CPRG and an absorbance plate reader.
3T3 fibroblast cells are re-suspended in RPMI-1640 medium without phenol red medium supplemented with 10% FBS (heat inactivated), 100 μg/ml penicillin, and 100 μg/ml streptomycin. Forty μL of suspension (1,000 cells) is dispensed into 384-well plates and incubated overnight at 37° C. temperature and in atmosphere containing 5% CO2. The following day, 100 nL of compounds of the invention in DMSO are added to plate wells containing 3T3 cells. At the same time control compounds (benznidazole and nifurtimox) and DMSO are added to plates to serve as the positive and negative controls, respectively. After that, 10 μL of media containing 10,000 T. cruzi trypomastigotes are added to each plate well and plates are placed back into incubators. After 6 day incubation, 10 μL of reagent solution (0.6 mM CPRG, 0.6% NP-40 in PBS) is added to plates and incubated at room temperature for 2 hours. Absorbance is then measured on SpectraMax GEMINI fluorimeter to determine relative number of T. cruzi cells present in each plate well.

[3] = Leishmania donovani, L. donovani axenic amastigotes in vitro
[4] = Trypanosoma cruzi, Fibroblast, T. cruzi amastigotes in 3T3 fibroblast cells
[5] = Leishmania donovani, Table 4: compound of Formula (I) compared with compounds having a different core
[6] = Trypanosoma cruzi, Fibroblast, Table 4: compound of Formula (I) compared with compounds having a different core

| SMILES | EC50 [1, 3] | EC50 [2, 4] | further results |
| --- | --- | --- | --- |
| Cc1nc(C)c(C(=O)Nc2ccc(F)c(-n3cc4cc(CC(C)C)cnc4n3)c2)o1 [Compound 16, N-{4-fluoro-3-[5-(2-methylpropyl)-2H-pyrazolo[3,4-b]pyridin-2-yl]phenyl}-2,4-dimethyl-1,3-oxazole-5-carboxamide] | 89 nM | 12 nM |  |
| Cc1nc(C)c(C(=O)Nc2ccc(F)c(-n3cc4cc(C5CC5)cnc4n3)c2)o1 [Compound 17, N-(3-{5-cyclopropyl-2H-pyrazolo[3,4-b]pyridin-2-yl}-4-fluorophenyl)-2,4-dimethyl-1,3-oxazole-5-carboxamide] | 64 nM | 16 nM |  |
| O=C(Nc1ccc(F)c(-n2cc3cc(C4CCCC4)cnc3n2)c1)N1CC(F)C1 [Compound 18, N-(3-{5-cyclopentyl-2H-pyrazolo[3,4-b]pyridin-2-yl}-4-fluorophenyl)-3-fluoroazetidine-1-carboxamide] | 290 nM | 160 nM |  |
| O=C(Nc1ccc(F)c(-n2cc3cc(C4CCCC4)cnc3n2)c1)N1CC(F)(F)C1 [Compound 30, N-(3-{5-cyclopentyl-2H-pyrazolo[3,4-b]pyridin-2-yl}-4-fluorophenyl)-3,3-difluoroazetidine-1-carboxamide] | 590 nM |  |  |
| CC(C)Cc1cnc2nn(-c3cc(NC(=O)N4CC[C@@H](F)C4)ccc3F)cc2c1 [Compound 41, (3R)-3-fluoro-N-{4-fluoro-3-[5-(2-methylpropyl)-2H-pyrazolo[3,4-b]pyridin-2-yl]phenyl}pyrrolidine-1-carboxamide] | 20 nM |  |  |
| O=C(Nc1ccc(F)c(-n2cc3cc(C4CCCC4)cnc3n2)c1)N1CC[C@@H](F)C1 [Compound 43, (3R)-N-(3-{5-cyclopentyl-2H-pyrazolo[3,4-b]pyridin-2-yl}-4-fluorophenyl)-3-fluoropyrrolidine-1-carboxamide] | 4.7 nM | 5.2 nM |  |
| CC(C)Cc1cnc2nn(-c3cc(NC(=O)c4ccco4)ccc3F)cc2c1 [Compound 54, N-{4-fluoro-3-[5-(2-methylpropyl)-2H-pyrazolo[3,4-b]pyridin-2-yl]phenyl}furan-2-carboxamide] | 28 nM | 4.1 nM |  |
| O=C(Nc1ccc(F)c(-n2cc3cc(C4CCCCC4)cnc3n2)c1)c1ccco1 [Compound 57, N-(3-{5-cyclohexyl-2H-pyrazolo[3,4-b]pyridin-2-yl}-4-fluorophenyl)furan-2-carboxamide] | 710 nM | 360 nM |  |
| CCC(C)c1cnc2nn(-c3cc(NC(=O)c4ccco4)ccc3F)cc2c1 (stereo not shown) [Compound 61, N-{3-[5-(butan-2-yl)-2H-pyrazolo[3,4-b]pyridin-2-yl]-4-fluorophenyl}furan-2-carboxamide] | 240 nM | 52 nM |  |
| Cc1nc(C)c(C(=O)Nc2ccc(F)c(-n3cc4cc(CC(C)(C)C)cnc4n3)c2)o1 [Compound 102, N-{3-[5-(2,2-dimethylpropyl)-2H-pyrazolo[3,4-b]pyridin-2-yl]-4-fluorophenyl}-2,4-dimethyl-1,3-oxazole-5-carboxamide] | 110 nM | 46 nM |  |
| Cc1ccc(C(=O)Nc2ccc(F)c(-n3cc4cc(C(C)C)cnc4n3)c2)o1 [Compound 109, N-{4-fluoro-3-[5-(propan-2-yl)-2H-pyrazolo[3,4-b]pyridin-2-yl]phenyl}-5-methylfuran-2-carboxamide] | 74 nM | 15 nM |  |
| COc1ccc(C(=O)Nc2ccc(F)c(-n3cc4cc(C(C)C)cnc4n3)c2)o1 [Compound 110, N-{4-fluoro-3-[5-(propan-2-yl)-2H-pyrazolo[3,4-b]pyridin-2-yl]phenyl}-5-methoxyfuran-2-carboxamide] | 640 nM | 150 nM |  |
| CC(C)c1cnc2nn(-c3cc(NC(=O)c4ccc(F)o4)ccc3F)cc2c1 [Compound 113, 5-fluoro-N-{4-fluoro-3-[5-(propan-2-yl)-2H-pyrazolo[3,4-b]pyridin-2-yl]phenyl}furan-2-carboxamide] | 37 nM | 5.22 nM |  |
| O=C(Nc1ccc(F)c(-n2cc3cc(N4CCOCC4)cnc3n2)c1)c1ccco1 [Compound 122, N-{4-fluoro-3-[5-(morpholin-4-yl)-2H-pyrazolo[3,4-b]pyridin-2-yl]phenyl}furan-2-carboxamide] | 15 nM | 4.2 nM |  |
| CC(C)c1cnc2nn(-c3cc(NC(=O)N4CC(F)(F)C4)ccc3F)cc2c1 [Compound 124, 3,3-difluoro-N-{4-fluoro-3-[5-(propan-2-yl)-2H-pyrazolo[3,4-b]pyridin-2-yl]phenyl}azetidine-1-carboxamide] | 18 nM | 16 nM |  |
| CC(C)c1cnc2nn(-c3cc(NC(=O)C4CCC4)ccc3F)cc2c1 [Compound 210, N-{4-fluoro-3-[5-(propan-2-yl)-2H-pyrazolo[3,4-b]pyridin-2-yl]phenyl}cyclobutanecarboxamide] | 494 nM | 79 nM |  |
| CC(C)c1cnc2nn(-c3cc(NC(=O)CC(C)C(F)(F)F)ccc3F)cc2c1 (stereo not shown) [Compound 213, 4,4,4-trifluoro-N-{4-fluoro-3-[5-(propan-2-yl)-2H-pyrazolo[3,4-b]pyridin-2-yl]phenyl}-3-methylbutanamide] | 1560 nM | 363 nM |  |
| CC(C)c1cnc2nn(-c3cc(NC(=O)CC(C)(C)C)ccc3F)cc2c1 [Compound 217, N-{4-fluoro-3-[5-(propan-2-yl)-2H-pyrazolo[3,4-b]pyridin-2-yl]phenyl}-3,3-dimethylbutanamide] | 14500 nM | 4350 nM |  |
| O=C(Nc1ccc(F)c(-n2cc3cc(N4CC5(C4)CC5(F)F)cnc3n2)c1)N1CC(F)C1 [Compound 261, N-[3-(5-{1,1-difluoro-5-azaspiro[2.3]hexan-5-yl}-2H-pyrazolo[3,4-b]pyridin-2-yl)-4-fluorophenyl}-3-fluoroazetidine-1-carboxamide] | 4 nM | 2 nM |  |
| O=C(Nc1ccc(F)c(-n2cc3cc(N4CCC(F)(F)C4)cnc3n2)c1)N1CC(F)C1 [Compound 262, N-{3-[5-(3,3-difluoropyrrolidin-1-yl)-2H-pyrazolo[3,4-b]pyridin-2-yl]-4-fluorophenyl}-3-fluoroazetidine-1-carboxamide] | 33 nM | 4 nM |  |
| Cc1nc(C)c(C(=O)Nc2ccc(F)c(-n3cc4cc(N5CC(C(F)(F)F)C5)cnc4n3)c2)o1 [Compound 279] |  |  | EC50 ([1]; L. donovani axenic amastigotes in vitro): 10 nM; EC50 ([2]; T. cruzi amastigotes in 3T3 fibroblast cells): 3 nM |
| O=C(Nc1ccc(F)c(-n2cc3cc(-c4ncccc4Cl)cnc3n2)c1)C1CC1 [Compound 333, N-{3-[5-(3-chloropyridin-2-yl)-2H-pyrazolo[3,4-b]pyridin-2-yl]-4-fluorophenyl}cyclopropanecarboxamide] | 43 nM | 16 nM |  |
| Cc1nc(C)c(C(=O)Nc2ccc(F)c(-n3cc4cc(C(C)C)cnc4n3)c2)o1 [drawing 458] |  |  | EC50 [1, 5]: 18 nM; EC50 [2, 6]: 15 nM |
| Cc1nc(C)c(C(=O)Nc2ccc(F)c(-c3cn4cc(C(C)C)cnc4n3)c2)o1 [reference compound] |  |  | EC50 [1, 5]: 180 nM; EC50 [2, 6]: 48 nM |
| Cc1nc(C)c(C(=O)Nc2ccc(F)c(-c3nc4ncc(C(C)C)cn4n3)c2)o1 [reference compound] |  |  | EC50 [1, 5]: 210 nM; EC50 [2, 6]: 45 nM |
| Cc1nc(C)c(C(=O)Nc2ccc(F)c(-c3nc4ncc(C(C)(C)C)cn4n3)c2)o1 [reference compound] |  |  | EC50 [1, 5]: 80 nM; EC50 [2, 6]: 22 nM |
| Cc1nc(C)c(C(=O)Nc2ccc(F)c(-c3cn4nc(C(C)(C)C)cnc4n3)c2)o1 [reference compound] |  |  | EC50 [1, 5]: 367 nM; EC50 [2, 6]: 57 nM |
